The numbers were not newly measured in US6797722B2 (Sigma-Tau Industrie Farmaceutiche Riunite S.p.A., priority 2002, dated 2004), which cites them from elsewhere.

The conditions of this series: oral route.

In the case of `CCc1ccccc1-c1n[nH]c(-c2cccc(OC)c2)n1` [ST1959, 3-(2-ethylphenyl)-5-(3-methoxyphenyl)-1H-1,2,4-triazole], the hepatic first-pass effect result is “rapid and extensive hepatic first-pass effect leading to the formation of inactive metabolites”.
